The source of these data is patent EP3381898A1, “SYMMETRICAL TRIS-ARYL-AMIDE DERIVATIVES AND THEIR USE AS ANTI-HEPARANASE” (priority 2017, dated 2018).

Like-named read-outs stand apart in the source and are kept apart here.

One experiment addresses T1, heparanase (Homo sapiens, UniProt Q9Y251).
T1 sequence (Q9Y251 158-543 limits assumed): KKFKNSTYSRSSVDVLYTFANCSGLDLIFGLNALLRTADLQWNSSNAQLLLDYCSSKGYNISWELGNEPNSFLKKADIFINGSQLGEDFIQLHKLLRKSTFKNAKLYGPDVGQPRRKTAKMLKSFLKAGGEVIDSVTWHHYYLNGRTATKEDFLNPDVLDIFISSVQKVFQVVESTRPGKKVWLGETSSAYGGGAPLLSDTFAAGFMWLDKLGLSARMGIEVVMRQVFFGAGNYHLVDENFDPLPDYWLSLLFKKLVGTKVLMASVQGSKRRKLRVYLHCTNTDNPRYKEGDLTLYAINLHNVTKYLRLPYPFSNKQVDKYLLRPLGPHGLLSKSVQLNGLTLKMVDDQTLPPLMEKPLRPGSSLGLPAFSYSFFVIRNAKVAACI
T1 sequence (Q9Y251 36-109 limits assumed): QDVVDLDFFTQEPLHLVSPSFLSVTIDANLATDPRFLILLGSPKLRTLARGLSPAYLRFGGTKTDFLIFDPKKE
Put plainly: AGA*IA assay: heparanase-catalyzed fondaparinux cleavage, colorimetric (WST-1). It is filed as biochemical. Here is the method: All compounds were tested in a simple, accurate and robust microplate assay based on the cleavage of the synthetic heparin fragment, the pentasaccharide Fondaparinux (AGA*IA). This assay was originally developed by Hammond and coworkers (Hammond E, Li CP, Ferro V. Development of a colorimetric assay for heparanase activity suitable for kinetic analysis and inhibitor screening. Anal. Biochem. 396(1), 112-116 (2010)), where Fondaparinux corresponds to the methyl glycoside of the antithrombin III (ATIII)-activating pentasaccharide sequence of heparin. Fondaparinux is cleaved by heparanase to generate a reducing disaccharide, which can be quantitatively measured via a colorimetric or a fluorescence assay, the last by the fluorescent sensor polymer-H [Schiemann S, Lühn S, Alban S. Development of both colorimetric and fluorescence heparinase activity assays using fondaparinux as substrate. Anal. Biochem. 427(1), 82-89 (2012)].
The assay measures the appearance of the disaccharide product of heparanase-catalyzed fondaparinux cleavage colorimetrically using the tetrazolium salt WST-1. Assay was essentially performed as described with minor modifications. Briefly, NUNC ELISA 96-well plates were pre-treated with a solution of 4% BSA (bovin serum albumin) in phosphate-buffered saline containing 0.05% Tween 20 (PBST), for 2 h at 37°C, then washed three times with PBST, dried by tapping on paper towel and stored at -20°C. Before use, once again, the plates were washed with PBST.
Assay was carried out with 100 µl/well of assay solution containing 40 mM sodium acetate buffer (pH 5.0), 100 µM fondaparinux, 2.5 nM heparanase and serial dilutions of test compounds (tested in triplicate). Plates were sealed with adhesive tape and incubated, in the dark, for 3 h at 37°C, followed by development with 1.69 mM of the tetrazolium salt WST-1 solution in 0.1 M NaOH, for 1 h at 60°C. Then, the absorbance at 560 nm was measured through a microplate reader (Victor 3, Perkin Elmer).
Finally, the measurements were corrected by subtracting both the reagent background and the inner absorbance value of test compound.

Experiment [1] concerns HT1080 (human fibrosarcoma). Put plainly: SRB Cell Cytotoxicity Assay (cell proliferation, 72h). It counts as cell-based. To be noted: HT-1080, 72 h, read-out: Concentration (µM) of test compounds at which the cell growth is inhibited by 50 %. HT1080. The method, then: (§1) SRB Cell Cytotoxicity Assay is an assay based upon the quantitative staining of cellular proteins by sulforhodamine B (SRB). This assay can be used for high-throughput drug screening ([…], Nature Protocol. 2006, 1, 112). Sulforhodamine B is an anionic aminoxanthene dye that forms an electrostatic complex with the basic amino acid residues of proteins under moderately acid conditions, which provides a sensitive linear response. […] Inhibition of cell proliferation was then measured by the classical colorimetric SRB Cell Cytotoxicity assay. Absorbance was measured by spectrophotometer at a wavelength of 510 nm and cell proliferation was determined as percent with respect to control cells (cells treated with the vehicle alone). EC50 values were then determined by GraphPad Prism.

In experiment [2] the test system is U2OS (human osteosarcoma). The description is as above. It counts as cell-based. To be noted: 72 h, read-out: Concentration (µM) of test compounds at which the cell growth is inhibited by 50 %. U2OS. The method, then: as §1
Experiment [3] concerns U87MG (human glioblastoma astrocytoma). Described as above. It is filed as cell-based. To be noted: U-87 MG, 72 h, read-out: Concentration (µM) of test compounds at which the cell growth is inhibited by 50 %. U87MG. The method, then:
as §1

[4] abbreviates: Table 1, range activity classes, AGA*IA test on Fondaparinux, read-out: AGAIA assay IC50.
[5] abbreviates: Table 2, classes as in Table 1, read-out: AGA*IA assay.

Take `Cn1cc(NC(=O)c2cccc(NC(=O)Nc3cccc(C(=O)Nc4cc(C(=O)Nc5cccc(CC(=O)N[C@@H](Cc6ccccc6)C(=O)O)c5)n(C)c4)c3)c2)cc1C(=O)Nc1cccc(CC(=O)N[C@@H](Cc2ccccc2)C(=O)O)c1` [Compound 12e, 2,2'-{carbonylbis[imino-3,1-phenylenecarbonylimino(1-methyl-1H-pyrrole-4,2-diyl)carbonylimino-3,1-phenylene(1-oxoethane-2,1-diyl)imino]}bis(3-phenylpropanoic acid)]: the IC50 on heparanase (AGA*IA screening, read-out: anti-heparanase activity) is below 0.5 µM; on heparanase (setting [4]), 0.05 to 0.49 µM; at heparanase (setting [5]), 0.05 to 0.49 µM. Further, the EC50 in experiment [1], in experiment [2] and in experiment [3] was above 2.5 µM each time.
In the case of `Cn1cc(NC(=O)Nc2cc(C(=O)Nc3cc(C(=O)Nc4cccc(CC(=O)O)c4)n(C)c3)n(C)c2)cc1C(=O)Nc1cc(C(=O)Nc2cccc(CC(=O)O)c2)n(C)c1` [Compound 17h, 2,2'-{carbonylbis[imino(1-methyl-1H-pyrrole-4,2-diyl)carbonylimino(1-methyl-1H-pyrrole-4,2-diyl)carbonylimino-3,1-phenylene]}diacetic acid], the IC50 on heparanase (setting [4]) and on heparanase (setting [5]) was 0.5 to 0.99 µM each time. For the same molecule, the EC50 in experiment [1], in experiment [2] and in experiment [3] was above 2.5 µM throughout.
With `Cn1cc(NC(=O)c2ccc(Oc3ccc(C(=O)Nc4cc(C(=O)Nc5cccc(CC(=O)N[C@@H](CCC(=O)O)C(=O)O)c5)n(C)c4)cc3)cc2)cc1C(=O)Nc1cccc(CC(=O)N[C@@H](CCC(=O)O)C(=O)O)c1` [Compound 36f, (2S,2'S)-2,2'-((2,2'-(((4,4'-((4,4'-Oxybis(benzoyl))bis(azanediyl))bis(1-methyl-1H-pyrrole-2,2'-carbonyl))bis(azanediyl))bis(3,1-phenylene))bis(acetyl))bis(azanediyl))dipentanedioic acid], at heparanase (setting [4]), the IC50 was in the range of 1 to 20 µM.
Still for that read-out and setting: as for `CC(C)C[C@H](NC(=O)Cc1cccc(NC(=O)c2cc(NC(=O)c3cc(NC(=O)Nc4cc(C(=O)Nc5cc(C(=O)Nc6cccc(CC(=O)N[C@@H](CC(C)C)B(O)O)c6)n(C)c5)n(C)c4)cn3C)cn2C)c1)B(O)O` [Compound 41, ((1R,1'R)-((2,2'-(((4,4'-((4,4'-(carbonylbis(azanediyl))bis(1-methyl-1H-pyrrole-4,2-diyl-2-carbonyl))bis(azanediyl))bis(1-methyl-1H-pyrrole-4,2-diyl-2-carbonyl))bis(azanediyl))bis(3,1-phenylene))bis(acetyl))bis(azanediyl))bis(3-methylbutane-1,1-diyl))diboronic acid], the figure is 1 to 20 µM; as for `CC(C)C[C@H](NC(=O)Cc1cccc(NC(=O)c2cc(NC(=O)c3ccc(Oc4ccc(C(=O)Nc5cc(C(=O)Nc6cccc(CC(=O)N[C@@H](CC(C)C)B(O)O)c6)n(C)c5)cc4)cc3)cn2C)c1)B(O)O` [Compound 42, ((1R,1'R)-((2,2'-(((4,4'-((4,4'-Oxybis(benzoyl))bis(azanediyl))bis(1-methyl-1H-pyrrole-2,2'-carbonyl))bis(azanediyl))bis(3,1-phenylene))bis(acetyl))bis(azanediyl))bis(3-methylbutane-1,1-diyl))diboronic acid], 1 to 20 µM.
On the same count and under the same terms, as for `CC(C)C[C@H](NC(=O)Cc1cccc(NC(=O)c2cc(NC(=O)c3cccc(NC(=O)Nc4cccc(C(=O)Nc5cc(C(=O)Nc6cccc(CC(=O)N[C@@H](CC(C)C)B(O)O)c6)n(C)c5)c4)c3)cn2C)c1)B(O)O` [Compound 43, ((1R,1'R)-((2,2'-(((4,4'-((3,3'-(Carbonylbis(azanediyl))bis(benzoyl))bis(azanediyl))bis(1-methyl-1H-pyrrole-4,2-diyl-2-carbonyl))bis(azanediyl))bis(3,1-phenylene))bis(acetyl))bis(azanediyl))bis(3-methylbutane-1,1-diyl))diboronic acid], the figure is 1 to 20 µM.
The same measure, in the same setting: in the case of `CC(C)C[C@H](NC(=O)CNC(=O)Cc1cccc(NC(=O)c2cc(NC(=O)c3cc(NC(=O)Nc4cc(C(=O)Nc5cc(C(=O)Nc6cccc(CC(=O)NCC(=O)N[C@@H](CC(C)C)B(O)O)c6)n(C)c5)n(C)c4)cn3C)cn2C)c1)B(O)O` [Compound 46, ((1R,1'R)-((2,2'-((2,2'-(((4,4'-((4,4'-(carbonylbis(azanediyl))bis(1-methyl-1H-pyrrole-4,2-diyl-2-carbonyl))bis(azanediyl))bis(1-methyl-1H-pyrrole-4,2-diyl-2-carbonyl))bis(azanediyl))bis(3,1-phenylene))bis(acetyl))bis(azanediyl))bis(acetyl))bis(azanediyl))bis(3-methylbutane-1,1-diyl))diboronic acid] it was 1 to 20 µM.
`CC(C)C[C@H](NC(=O)CNC(=O)Cc1cccc(NC(=O)c2cc(NC(=O)c3cccc(NC(=O)Nc4cccc(C(=O)Nc5cc(C(=O)Nc6cccc(CC(=O)NCC(=O)N[C@@H](CC(C)C)B(O)O)c6)n(C)c5)c4)c3)cn2C)c1)B(O)O` [Compound 47, ((1R,1'R)-((2,2'-((2,2'-(((4,4'-((3,3'-(Carbonylbis(azanediyl))bis(benzoyl))bis(azanediyl))bis(1-methyl-1H-pyrrole-4,2-diyl-2-carbonyl))bis(azanediyl))bis(3,1-phenylene))bis(acetyl))bis(azanediyl))bis(acetyl))bis(azanediyl))bis(3-methylbutane-1,1-diyl))diboronic acid]: the IC50 on heparanase (setting [4]) was in the range of 1 to 20 µM.
